Laboratory results taken from US20220040129A1, “TREATMENT OF HYPERAMMONEMIA IN PATIENTS WITH RENAL INSUFFICIENCY” (RECORDATI S.p.A., priority 2019, published 2022).

Assays:
[1] = molecular target: CYP2D6 (Homo sapiens, UniProt P10635); assay: In vitro CYP inhibition; format: in vitro ADME
[2] = Exposure previously observed in HVs following oral administration; settings: human, in vivo, read-out: Highest AUC previously observed
[3] = clinical; settings: human, in vivo; for CL renal / clearance / half-life / Vd: both sexes; for clearance: Cl
Protocol: The levels of CGA in plasma and urine were analysed using a fully validated method, which included LC-MS/MS analysis. The PK data were analysed based on a non-compartmental model. A model-based approach was implemented for the characterization of the PK properties of the IV formulation in order to estimate the level of PK exposure after different doses administered with different duration of infusion. The model outcomes provided rationales for supporting decision-making through the dose escalation process. The PK parameters were determined using SAS (version 9.3), and modelling of the PK data was performed using NONMEM (version 7.3, ICON Solutions). PART A: Mono-Centre, Randomized, Successive Groups, Double-Blind, Placebo-Controlled Study in Healthy Male and Female Subjects
Part C was a randomized, double-blind, placebo-controlled study. It was conducted in five successive cohorts of 8 healthy male or female subjects each, for a total of 40 subjects. For each of the five cohorts, 6 subjects were administered CGA and 2 subjects received placebo. The study medication was administered IV, first as a loading dose and then as a maintenance dose. The dosage regimen was determined based both on the results of Part A and PK modelling.
For the first three cohorts, three ascending doses of the study medication were administered IV as loading doses of 2.0, 3.0, and 3.6 mg/kg for 20 minutes, respectively, followed by maintenance doses of 2.5, 3.75 and 4.5 mg/kg/h given by IV infusion over a period of […]. For the fourth cohort, a dose of the IV formulation of CGA determined as being well tolerated was administered as a loading dose by IV infusion over 20 minutes, followed by a maintenance dose administered by IV infusion over a period of up to 12 hours. The 5th cohort received the study medication at the same dose and under the same conditions as the 4th cohort, except for the period during which the maintenance dose was administered, which lasted up to 24 hours.
Blood sample for PK measurements were collected at 18 timepoints for the first three cohorts, and 20 timepoints for the 4th and 5th cohorts. These included a sample preceding the administration of the study medication, and the period from 20 minutes to 48 hours following the initiation of the IV infusion. Urine was also collected for PK measurements at the following intervals relative to the time of initiation of the IV infusion: 0-6, 6-12, 12-24, 24-36, and 36-48 hours. […]

Chain of CYP2D6 (P10635 whole entry): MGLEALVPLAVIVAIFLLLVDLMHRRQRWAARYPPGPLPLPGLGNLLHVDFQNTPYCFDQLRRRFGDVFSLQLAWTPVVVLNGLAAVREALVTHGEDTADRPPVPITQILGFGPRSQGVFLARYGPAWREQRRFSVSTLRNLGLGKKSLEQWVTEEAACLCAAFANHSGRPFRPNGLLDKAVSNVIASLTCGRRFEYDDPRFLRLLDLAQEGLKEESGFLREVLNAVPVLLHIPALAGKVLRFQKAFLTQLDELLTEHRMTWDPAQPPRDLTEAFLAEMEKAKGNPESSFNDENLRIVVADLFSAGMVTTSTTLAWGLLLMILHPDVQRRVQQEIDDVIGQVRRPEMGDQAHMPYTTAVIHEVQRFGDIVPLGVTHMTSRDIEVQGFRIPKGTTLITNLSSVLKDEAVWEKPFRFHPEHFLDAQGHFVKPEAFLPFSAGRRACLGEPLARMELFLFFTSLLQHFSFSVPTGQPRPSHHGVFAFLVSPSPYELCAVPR

For `NC(=O)N[C@@H](CCC(=O)O)C(=O)O` [carglumic acid, N-carbamoyl-L-glutamic acid], the “Inhibition of CYP2D6” value [1] was “not an inhibitor”, the AUC [2] was 30700 ng·h/mL and the CL renal ([3]; iv, Average renal clearance) was 4.83 mL/min/kg. For the same compound, the clearance ([3]; iv, Mean) was 5.33 mL/min/kg, the clearance ([3]; iv, Median) was 5.27 mL/min/kg and the half-life ([3]; iv, Mean) was 1710 min. The half-life ([3]; iv, Median) was 1710 min, the CL renal ([3]; iv, Renal Clearance, Mean) was 4.83 mL/min/kg and the CL renal ([3]; iv, Renal Clearance, Median) was 4.98 mL/min/kg. For the same compound, the Vd ([3]; iv, Mean) was 13 L/kg, the Vd ([3]; iv, Median) was 12.8 L/kg and the “Ae (% of the dose excreted), Max” value ([3]; both, iv) was 111.412%. For the same compound, the “Ae (% of the dose excreted), Mean” value ([3]; both, iv) was 84.478%, the “Ae (% of the dose excreted), Median” value ([3]; both, iv) was 86.924% and the “Ae (% of the dose excreted), Min” value ([3]; both, iv) was 38.756%. The “Cl, Max” value ([3]; both, iv) was 0.438 L/h/kg, the “Cl, Min” value ([3]; both, iv) was 0.192 L/h/kg and the “Half-life, Max” value ([3]; both, iv) was 39.987 h. The “Half-life, Min” value ([3]; both, iv) was 13.598 h, the “Renal Clearance, Max” value ([3]; both, iv) was 0.510 L/h/kg and the “Renal Clearance, Min” value ([3]; both, iv) was 0.116 L/h/kg. For the same compound, the “Vd, Max” value ([3]; both, iv) was 19.689 L/kg, the “Vd, Min” value ([3]; both, iv) was 3.897 L/kg and the “Dose dependence of AUCinf, AUClast and Cmax” value [3] was “increased linearly”.
